Assay [1] can be described thus: Diuretic effect on rats: urinary volume during a 5 hour period after oral administration. Format: in vivo, Wister male rats. The following applies: 3 mg/kg oral; for Urine discharge (in words): Wister male rats; for Urinary volume relative to control: starved rats, 5 hour period after administration, control taken as 100%. Here is the method:
About 16 hours before oral administration with 3 mg/kg of the compounds, the rats were starved, with only water available. The urinary volume during a 5 hour period after administration was compared with that of the control groups, taking the urinary volume of the latter as 100%.

In assay [2] the test system is Carrageenan-Induced Edema in Rat Paws. The assay is described as follows: Anti-inflammatory effect on carrageenan-induced edema in rat paws (oral). The following applies: for % Inhibition of Foot Edema: 1 hour before carrageenan, swelling at third hour, control taken as 100%; for Inhibition of carrageenan-induced edema (in words): oral, Wister male rats. Format: in vivo, Wister male rats. Here is the method:
One hour after oral administration with these compounds, the rats were subcutaneously injected with 0.1 m of 1% carrageenan suspension on the plantar surface of the right hind foot. The swelling was measured at the third hour of carrageenan injection. Anti-inflammatory effect of the compounds was determined as percentage inhibition of the swelling, taking the swelling in the control groups as 100%.
(In general: Carrageenan injected into the paw causes an acute inflammation.)

Each structure is given as a SMILES string.

With `Cl.NCc1cc2c(c(I)c1O)CCC2` [4-Iodo-6-aminomethyl-5-indanol Hydrochloride], in assay [1], the “Urine discharge (in words)” value is “discharged increased amounts of urine” and the “Urinary volume relative to control” value is reported as 138%. In assay [2] (10 mg/kg oral), the “% Inhibition of Foot Edema” value is recorded as 41.1%. In addition, the “% Inhibition of Foot Edema” value in assay [2] (30 mg/kg oral) is 55.8%. In assay [2], the “Inhibition of carrageenan-induced edema (in words)” value (“Inhibition … (in words)” for short) is “had carrageenan-induced edema in their paws inhibited”.
For the compound `CN(C)Cc1cc2c(c(I)c1O)CCCC2.Cl` [1-Iodo-3-(N,N-dimethylaminomethyl)-5,6,7,8-tetrahydro-2-naphthol Hydrochloride], in assay [1], the “Urine discharge (in words)” value is listed as “discharged increased amounts of urine” and the “Urinary volume relative to control” value is 232%.
Turning to `CC1CCc2c1cc(CN)c(O)c2I.Cl` (stereo not shown) [1-Methyl-4-iodo-6-aminomethyl-5-indanol hydrochloride], in assay [1], the “Urine discharge (in words)” value is given as “discharged increased amounts of urine” and the “Urinary volume relative to control” value stood at 208%.
For `CC1(C)CCCc2c1cc(CN)c(O)c2I.Cl` [1-Iodo-3-aminomethyl-5,5-dimethyl-5,6,7,8-tetrahydro-2-naphthol Hydrochloride], the “% Inhibition of Foot Edema” value in assay [2] (10 mg/kg oral) is 44.1%; in assay [2] (30 mg/kg oral), 66.3%. Moreover, in assay [2], the “Inhibition … (in words)” value is recorded as “had carrageenan-induced edema in their paws inhibited”.
Regarding `Br.NCc1cc2c(c(I)c1O)CCCC2` [1-Iodo-3-aminomethyl-5,6,7,8-tetrahydro-2-naphthol Hydrobromide], in assay [1], the “Urine discharge (in words)” value is recorded as “discharged increased amounts of urine” and the “Urinary volume relative to control” value is given as 226%. Besides, the “% Inhibition of Foot Edema” value in assay [2] (10 mg/kg oral) is 68.8%. For the same compound, in assay [2] (30 mg/kg oral), the “% Inhibition of Foot Edema” value came to 69.6%. Moreover, in assay [2], the “Inhibition … (in words)” value was “had carrageenan-induced edema in their paws inhibited”.
In the case of `Br.NCc1c(O)c(I)cc2c1CCCC2` [1-Aminomethyl-3-iodo-5,6,7,8-tetrahydro-2-naphthol Hydrobromide], in assay [1], the “Urine discharge (in words)” value was “discharged increased amounts of urine” and the “Urinary volume relative to control” value was 142%. Further, the “% Inhibition of Foot Edema” value in assay [2] (10 mg/kg oral) was determined as 55.6%. In assay [2] (30 mg/kg oral), the “% Inhibition of Foot Edema” value came out at 68.8%. Also, in assay [2], the “Inhibition … (in words)” value was “had carrageenan-induced edema in their paws inhibited”.

(Values after patent publication US4254056A, “2-Aminomethyl phenol derivative and process for preparing thereof” (Ono Pharmaceutical Co., Ltd., priority 1977, dated 1981).)
